The target of the assay is T1, Aurora A (Homo sapiens, UniProt O14965).
T1 sequence (O14965 1-403): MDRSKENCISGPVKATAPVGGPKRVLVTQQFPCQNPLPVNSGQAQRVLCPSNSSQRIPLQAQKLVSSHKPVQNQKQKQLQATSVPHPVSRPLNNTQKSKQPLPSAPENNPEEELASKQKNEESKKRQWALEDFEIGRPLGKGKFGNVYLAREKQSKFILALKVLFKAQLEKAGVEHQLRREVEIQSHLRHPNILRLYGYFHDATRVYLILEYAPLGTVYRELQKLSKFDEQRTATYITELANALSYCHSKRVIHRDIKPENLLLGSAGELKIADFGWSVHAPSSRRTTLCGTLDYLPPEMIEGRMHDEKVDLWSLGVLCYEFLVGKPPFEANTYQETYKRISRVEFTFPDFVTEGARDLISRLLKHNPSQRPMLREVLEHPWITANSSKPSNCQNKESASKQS
The experiment in a line: Aurora A enzyme assay (time-resolved fluorescence). It is filed as biochemical. Conditions: 1 mM ATP. The method, then: After 1 hour, the reaction was stopped with EDTA and anti-phospho-STK antibody Europium Cryptate (Upstate) and SA-XL665 (Upstate) were added to detect the phosphopeptide. The amount of phosphorylation was determined by the time-resolved fluorescence ratio of signals at 665 nm and 615 nm. The IC50s were calculated by an exponential fit of the inhibition values with the inhibitor concentrations using Assay Explorer software.

Each structure is given as a SMILES string.

Broadly, the IC50 is the concentration that gives 50% inhibition. A high value points to lower potency.

`CNC(=O)c1cnc(N)c2c(-c3ccc(NC(=O)Nc4cccc(C)c4)cc3)csc12` [Example 2, 4-amino-N-methyl-3-(4-{[(3-methylphenyl)carbamoyl]amino}phenyl)thieno[3,2-c]pyridine-7-carboxamide]: the IC50 is 0.058 µM. That is a double-digit nanomolar value.

These data come from patent US20130023555A1, “KINASE INHIBITOR WITH IMPROVED SOLUBILITY PROFILE” (Abbott Laboratories, priority 2011, published 2013).
